Data taken from patent US9090600B2, “Fungicidal 4-substituted-3-{phenyl[(heterocyclylmethoxy)imino]methyl}-1,2,4-oxadizol-5(4H)-one derivatives” (BAYER INTELLECTUAL PROPERTY GMBH, priority 2011, dated 2015).
Marks after values point to notes of the source that are not given here.

Details: pH 2.7

SMILES | LogP
Nc1cccc(CON=C(c2ccccc2)c2noc(=O)[nH]2)n1 (mixture of isomers) [Example 96] | 1.2 [a]
Cc1cccc(C(=NOCc2cccc(N)n2)c2noc(=O)[nH]2)c1 (mixture of isomers) [Example 121] | 1.47 [a]
C#CCCOC(=O)Nc1cccc(CON=C(C(N)=NO)c2ccccc2)n1 (mixture of isomers) [Example V-1] | 2.1 [a]
CC(C)(C)OC(=O)Nc1cccc(CON=C(C(N)=NO)c2ccccc2F)n1 (mixture of isomers) [Example V-5] | 2.68 [a]
COc1cccc(C(=NOCc2cccc(N)n2)C(N)=NO)c1 (mixture of isomers) [Example V-6] | 0.58 [a]
Cc1cccc(C(=NOCc2cccc(N)n2)C(N)=NO)c1 (mixture of isomers) [Example V-7] | 0.75 [a]
CC(C)(C)OC(=O)Nc1cccc(CON=C(C(N)=NO)c2ccc(F)cc2)n1 (mixture of isomers) [Example V-8] | 2.68 [a]
NC(=NO)C(=NOCc1cccc(N)n1)c1ccccc1 (mixture of isomers) [Example V-9] | 0.39 [a]
NC(=NO)C(=NOCc1csc(N)n1)c1ccccc1Cl (mixture of isomers) [Example V-10] | 0.73 [a]
CC(C)(C)OC(=O)Nc1cccc(CON=C(C(N)=NO)c2ccccc2)n1 (mixture of isomers) [Example V-11] | 2.54 [a]
NC(=NO)C(=NOCc1cccc(N)n1)c1cccc(F)c1 (mixture of isomers) [Example V-12] | 0.56 [a]
COc1ccc(C(=NOCc2cccc(NC(=O)OC(C)(C)C)n2)C(N)=NO)cc1 (mixture of isomers) [Example V-13] | 2.51 [a]
CC(C)(C)OC(=O)Nc1cccc(CON=C(C(N)=NO)c2ccccc2)n1 (mixture of isomers) [Example V-14] | 2.57 [a]
Cc1ccc(C(=NOCc2csc(N)n2)C(N)=NO)cc1 (mixture of isomers) [Example V-15] | 0.89 [a]
CC(C)C1(C(=O)Nc2cccc(CO/N=C(/c3ccccc3)c3noc(=O)n3C)n2)CC1(Cl)Cl (racemic) [Example 371] | 4.35 [a]
Cc1ccc(/C(=N/OCc2csc(NC(=O)C3COc4ccccc4O3)n2)c2noc(=O)n2C)cc1 (racemic) [Example 392] | 3.9 [a]
CC#CCC(C)OC(=O)Nc1cccc(CO/N=C(/c2ccccc2)c2noc(=O)n2C)n1 (racemic) [compound 455] | 3.89 [a]
CCCCC(CC)COC(=O)Nc1cccc(CO/N=C(/c2ccccc2)c2noc(=O)n2C)n1 (racemic) [compound 463] | 5.54 [a]
Cn1c(/C(=N\OCc2cccc(NC(=O)OCC3COC(=O)O3)n2)c2ccccc2)noc1=O (racemic) [compound 474] | 2.75 [a]
CC(CC1CC1)OC(=O)Nc1cccc(CO/N=C(/c2ccccc2)c2noc(=O)n2C)n1 (racemic) [compound 475] | 4.32 [a]
C=CCC(C)OC(=O)Nc1cccc(CO/N=C(/c2ccccc2)c2noc(=O)n2C)n1 (racemic) [compound 479] | 4.01 [a]
C#CCCOC(=O)Nc1cccc(CO/N=C(/c2ccccc2)c2noc(=O)[nH]2)n1 [Example 22] | 3.09 [a]
Cn1c(/C(=N\OCc2csc(NC(=O)COc3ccccc3F)n2)c2ccccc2)noc1=O [Example 28] | 3.51 [a]
COc1ccccc1OCC(=O)Nc1cccc(CO/N=C(/c2ccccc2)c2noc(=O)n2C)n1 [Example 31] | 3.8 [a]
Cn1c(/C(=N\OCc2csc(NC(=O)COc3ccc(F)cc3)n2)c2ccccc2)noc1=O [Example 38] | 3.53 [a]

SMILES | LogP
CCCCCOC(=O)Nc1nc(CO/N=C(/c2ccc(C)cc2)c2noc(=O)n2C)cs1 [Example 41] | 4.41 [a]
CC(C)CCCOC(=O)Nc1cccc(CO/N=C(/c2ccccc2)c2noc(=O)n2C)n1 [Example 45] | 4.81 [a]
Cn1c(/C(=N\OCc2cccc(NC(=O)OCCc3cccc(Br)c3)n2)c2ccccc2)noc1=O [Example 49] | 4.61 [a]
CC(Cc1ccccc1)OC(=O)Nc1cccc(CO/N=C(/c2ccccc2)c2noc(=O)n2C)n1 (stereo not shown) [Example 60] | 4.49 [a]
CC(Oc1cccc(Cl)c1)C(=O)Nc1cccc(CO/N=C(/c2ccccc2)c2noc(=O)n2C)n1 (stereo not shown) [Example 64] | 4.38 [a]
Cn1c(/C(=N\OCc2cccc(NC(=O)COc3ccc(Br)cc3)n2)c2ccccc2)noc1=O [Example 65] | 4.2 [a]
Cn1c(/C(=N\OCc2cccc(NC(=O)COc3ccc(F)cc3)n2)c2ccccc2)noc1=O [Example 66] | 3.73 [a]
COc1cccc(OC(C)C(=O)Nc2cccc(CO/N=C(/c3ccccc3)c3noc(=O)n3C)n2)c1 (stereo not shown) [Example 69] | 3.97 [a]
Cc1ccccc1OCC(=O)Nc1cccc(CO/N=C(/c2ccccc2)c2noc(=O)n2C)n1 [Example 76] | 4.17 [a]
Cn1c(/C(=N\OCc2csc(N)n2)c2ccccc2Cl)noc1=O [Example 90] | 1.72 [a]
Cn1c(/C(=N\OCc2cccc(NC(=O)COC3CCCC3)n2)c2ccccc2)noc1=O [Example 94] | 4.04 [a]
Cn1c(/C(=N\OCc2cccc(NC(=O)OC(C)(C)C)n2)c2ccccc2F)noc1=O [Example 97] | 3.92 [a]
Cn1c(/C(=N\OCc2cccc(NC(=O)COc3cccc(Cl)c3)n2)c2ccccc2)noc1=O [Example 105] | 4.1 [a]
COc1ccccc1OC(C)C(=O)Nc1cccc(CO/N=C(/c2ccccc2)c2noc(=O)n2C)n1 (stereo not shown) [Example 115] | 4.15 [a]
Cn1c(/C(=N\OCc2cccc(NC(=O)COc3ccccc3F)n2)c2ccccc2)noc1=O [Example 125] | 3.76 [a]
CC(OCc1ccccc1)C(=O)Nc1nc(CO/N=C(/c2ccccc2)c2noc(=O)n2C)cs1 (stereo not shown) [Example 126] | 3.85 [a]
Cc1cccc(OC(C)C(=O)Nc2cccc(CO/N=C(/c3ccccc3)c3noc(=O)n3C)n2)c1 (stereo not shown) [Example 128] | 4.35 [a]
Nc1cccc(CON=C(c2cccc(F)c2)c2noc(=O)[nH]2)n1 [Example 129] | 1.35 [a]
CC(C)(C)OC(=O)Nc1cccc(CO/N=C(/c2ccccc2)c2noc(=O)[nH]2)n1 [Example 135] | 3.76 [a]
COc1cccc(/C(=N/OCc2cccc(N(C(=O)OC(C)(C)C)C(=O)OC(C)(C)C)n2)c2noc(=O)n2C)c1 [Example 141] | 4.44 [a]
COc1cccc(/C(=N/OCc2cccc(NC(=O)OC(C)CC(C)C)n2)c2noc(=O)n2C)c1 (stereo not shown) [Example 149] | 4.72 [a]
CCCCCOC(=O)Nc1nc(CO/N=C(/c2cccc(F)c2)c2noc(=O)n2C)cs1 [Example 150] | 4.19 [a]
CC(OCc1ccccc1)C(=O)Nc1cccc(CO/N=C(/c2ccccc2)c2noc(=O)n2C)n1 (stereo not shown) [Example 156] | 4.15 [a]
COc1ccc(/C(=N/OCc2cccc(N)n2)c2noc(=O)n2C)cc1 [Example 157] | 1.35 [a]
Cn1c(/C(=N\OCc2csc(NC(=O)COc3ccccc3Br)n2)c2ccccc2)noc1=O [Example 159] | 3.89 [a]

SMILES | LogP
CCCCC(C)(C)C(=O)Nc1nc(CO/N=C(/c2ccccc2)c2noc(=O)n2C)cs1 [Example 160] | 4.48 [a]
Cn1c(/C(=N\OCc2cccc(NC(=O)SC(C)(C)C)n2)c2ccccc2)noc1=O [Example 162] | 4.39 [a]
Cn1c(/C(=N\OCc2csc(NC(=O)COc3ccc(Cl)cc3)n2)c2ccccc2)noc1=O [Example 164] | 3.85 [a]
CCCCC(=O)Nc1nc(CO/N=C(/c2ccc(C)cc2)c2noc(=O)n2C)cs1 [Example 169] | 3.7 [a]
Cn1c(/C(=N\OCc2cccc(NC(=O)c3ccc(I)cc3)n2)c2ccccc2)noc1=O [Example 174] | 4.29 [a]
CC(Oc1cccc(Br)c1)C(=O)Nc1cccc(CO/N=C(/c2ccccc2)c2noc(=O)n2C)n1 (stereo not shown) [Example 179] | 4.46 [a]
COc1ccccc1C(=O)Nc1cccc(CO/N=C(/c2ccccc2)c2noc(=O)n2C)n1 [Example 181] | 3.87 [a]
CCCCOC(=S)Nc1cccc(CO/N=C(/c2ccccc2)c2noc(=O)n2C)n1 [Example 183] | 4.53 [a]
CCC1(C(=O)Nc2cccc(CO/N=C(/c3ccccc3)c3noc(=O)n3C)n2)C(C)C1(Cl)Cl (stereo not shown) [Example 189] | 4.35 [a]
CC(C)(C)OC(=O)Nc1cccc(CO/N=C(\c2noc(=O)[nH]2)c2ccccc2F)n1 [Example 193] | 3.68 [a]
Cn1c(/C(=N\OCc2csc(NC(=O)COCc3ccccc3)n2)c2ccccc2)noc1=O [Example 194] | 3.6 [a]
Cn1c(/C(=N\OCc2cccc(NC(=O)Cc3ccc(Cl)cc3)n2)c2ccccc2)noc1=O [Example 196] | 3.92 [a]
Cn1c(/C(=N\OCc2csc(NC(=O)Cc3ccccc3)n2)c2cccc(F)c2)noc1=O [Example 203] | 3.46 [a]
CC(Oc1ccc(Br)cc1)C(=O)Nc1cccc(CO/N=C(/c2ccccc2)c2noc(=O)n2C)n1 (stereo not shown) [Example 204] | 4.46 [a]
Cn1c(/C(=N\OCc2cccc(NC(=O)OCCCC(F)(F)F)n2)c2ccccc2)noc1=O [Example 205] | 3.85 [a]
Cc1ccccc1OCC(=O)Nc1nc(CO/N=C(/c2ccccc2)c2noc(=O)n2C)cs1 [Example 213] | 3.85 [a]
CC(C)(C)OC(=O)Nc1cccc(CO/N=C(/c2ccc(F)cc2)c2noc(=O)[nH]2)n1 [Example 214] | 3.78 [a]
COc1ccc(C(=O)Nc2cccc(CO/N=C(/c3ccccc3)c3noc(=O)n3C)n2)cc1 [Example 217] | 3.53 [a]
Cn1c(/C(=N\OCc2csc(NC(=O)C(F)(F)Oc3ccccc3)n2)c2ccccc2)noc1=O [Example 220] | 3.89 [a]
Cn1c(/C(=N\OCc2cccc(NC(=O)C3(c4ccc(Cl)cc4Cl)CC3)n2)c2ccccc2)noc1=O [Example 222] | 4.96 [a]
CC(Oc1ccccc1Cl)C(=O)Nc1cccc(CO/N=C(/c2ccccc2)c2noc(=O)n2C)n1 (stereo not shown) [Example 231] | 4.41 [a]
Cn1c(/C(=N\OCc2csc(NC(=O)C3COc4ccccc4O3)n2)c2cccc(F)c2)noc1=O (stereo not shown) [Example 234] | 3.7 [a]
Cn1c(/C(=N\OCc2cccc(NC(=O)OCCc3ccc(Br)cc3)n2)c2ccccc2)noc1=O [Example 238] | 4.63 [a]
